Experimental findings from PubChem BioAssay (NCI) are described below.

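All cell lines were grown in 96-well plates and treated with compound for 48 hours. Abbreviation: GI50, concentration required for 50% inhibition of growth. TGI denotes the concentration required for complete inhibition of growth.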 Where only a bound is given, the exact number is not on record here.

What all share (experiment): NCI tumour cell line growth inhibition, 48 h
Assay [1] has as its system SK-MEL-5 melanoma.
For assay [2], the system named is SF-539 CNS.
Assay [3] has as its system ACHN renal.
Assay [4] concerns OVCAR-4 ovarian.
Assay [5] has as its system TK-10 renal.
The subject of assay [6] is SW-620 colon.
The subject of assay [7] is OVCAR-8 ovarian.
For assay [8], the system named is NCI-H226 lung.
Assay [9] relates to SF-295 CNS.
Assay [10] has as its system HCC-2998 colon.

`c1ccc(-c2cc3n4c(-c5ccccc5)nn(-c5ccccc5)c4cnc-3n2)cc1`: the GI50 in assay [1] is over 50 µM; in assay [2] it was 13.7 µM; in assay [3], over 50 µM; in assay [4] it was 31.3 µM; in assay [5], 19.3 µM; in [6], over 50 µM. Also, the GI50 in assay [7] is over 50 µM; in assay [8] it was over 50 µM; in assay [9], 2.35 µM. The TGI in [1], in assay [2], in assay [3], in assay [4], in [5] and in assay [6] was over 50 µM throughout. The TGI in assay [7], in assay [8] and in assay [9] was over 50 µM each time.
For the molecule `O/N=C1\C(=C\c2ccc3c(c2)OCCO3)CCCC1C(NO)c1ccc2c(c1)OCCO2` (stereo unspecified), the TGI is 30.1 µM in [1]; 26.8 µM in assay [2]; over 100 µM in assay [3]; over 100 µM in [4]; 50.7 µM in assay [5]; over 100 µM in [6]. Further, the TGI was 65.3 µM in assay [10], over 100 µM in assay [7] and over 100 µM in [9].
Take `C=CCCC(=O)CC(=O)OCc1ccccc1`: the TGI in assay [1], in [2], in assay [3], in assay [4], in assay [5] and in assay [6] was over 100 µM in each case. Besides, the TGI in assay [10], in [7] and in assay [9] was over 100 µM throughout.
For the molecule `COC(=O)C(=O)C(C#N)c1c(Cl)cccc1Cl` (stereo unspecified), the TGI in assay [1], in assay [2], in assay [3], in assay [4], in assay [5] and in [6] was over 100 µM throughout. The TGI in [7], in assay [8] and in assay [9] was over 100 µM each time.
On to `CCSc1nc(N)c2cnn(CC)c2n1`, for which the GI50 in [1] is 2.58 µM; in assay [2], 6.67 µM; in [4] it was 49 µM; in assay [5], 4.56 µM; in [6], 3.8 µM; in [7], 3.21 µM. Besides, the figures for the GI50 in assay [8] and in assay [9] were 3.41 µM and 8.02 µM, respectively. Also, the TGI in assay [1] was 8.05 µM; in [2], 27.3 µM; in assay [4] it was over 100 µM; in assay [5], 36.1 µM; in assay [6], 18.2 µM; in [7], 19.4 µM. Further, the results for the TGI in [8] and in [9] were 30.9 µM and over 100 µM, respectively.
`COc1cc(CCc2ccncc2)cc(OC)c1OC`: the TGI in assay [1], in [2], in [3], in assay [4], in [5] and in assay [6] was over 100 µM throughout. In addition, the TGI in [7], in assay [8] and in assay [9] was over 100 µM in each case.
For `Cc1nc(-n2nc(-c3ccccc3)cc2-c2ccccc2)sc1C(=O)/C=C/c1cccc([N+](=O)[O-])c1`, the TGI in [1] is 26.7 µM; in assay [2], 22.8 µM; in assay [3], over 100 µM; in assay [5] it was 92.3 µM; in assay [10] it was 28.8 µM; in assay [7], over 100 µM. The TGI in assay [9] came to 43.1 µM.
As for `CC1=CC(=O)N2C(OC[C@@H]2c2ccccc2)O1` (stereo partly specified), the TGI in assay [1], in assay [2], in assay [3], in assay [4], in assay [5] and in assay [6] was over 100 µM each time. Also, the TGI in [7], in assay [8] and in assay [9] was over 100 µM throughout.
Take `N#C/C(=C1\OC(N)=C(c2ccc(Cl)cc2)C1=O)c1ccc(Cl)cc1`: the TGI in assay [2] worked out at 27.6 µM; in assay [3], 33.1 µM; in assay [4], 32 µM; in assay [5], 41.4 µM; in assay [6] it was 25.9 µM; in assay [10], 30.9 µM. In addition, the figures for the TGI in assay [7] and in assay [9] were 26.3 µM and 29.2 µM, respectively.
Turning to `CC(=O)/C(=C/N1CCN(C(=O)c2ccco2)C1=S)C(=O)c1ccccc1`, the GI50 in [1] was 8.12 µM; in [2], 1.09 µM; in assay [3], 6.9 µM; in assay [4] it was 20.1 µM; in assay [5], 10.6 µM; in [6], 6.12 µM. For the same molecule, the GI50 in assay [7] is 8.75 µM; in assay [9], 19.3 µM. The TGI amounted to 15.4 µM in assay [1]; 3.56 µM in [2]; 17.6 µM in assay [3]; 37.4 µM in assay [4]; 28.6 µM in [5]; 17 µM in assay [6]. The TGI in assay [7] was 24.3 µM; in assay [9], over 50 µM.
For `C1CC[N-]CC1.CC(=N\O)/C(C)=N/O.CC(=N\O)/C(C)=N/O.C[CH-]C(C)O.[Co+2]`, the GI50 in assay [1] is 20.1 µM; in [2] it was 24 µM; in [3], 23.8 µM; in assay [4] it was 33.1 µM; in assay [5], 23.8 µM; in [6] it was 23.5 µM. In addition, the GI50 in assay [7] is 21.2 µM; in [8], 26.2 µM; in assay [9] it was 88.5 µM. In addition, the TGI in assay [1] was 43.1 µM; in assay [2], 94.4 µM; in assay [3] it was 81.2 µM; in [4] it was over 100 µM; in [5], 60.4 µM; in assay [6], 66.8 µM. The figures for the TGI in assay [7], in assay [8] and in [9] were 59.6 µM, 69 µM and over 100 µM, respectively.
For the molecule `O=C(N/C(=C\c1ccc(F)cc1)c1nc2ccccc2[nH]1)c1ccccc1`, the TGI in [1], in assay [2], in assay [3], in [4], in assay [5] and in assay [6] was over 100 µM throughout. Also, the TGI in [7] and in [8] was over 100 µM each time.
Regarding `CC1OC(=O)N2CCC=CC12` (stereo unspecified), the TGI in assay [1], in assay [2], in assay [3], in assay [4], in assay [5] and in [6] was over 100 µM in each case. Moreover, the TGI in assay [7], in [8] and in [9] was over 100 µM in each case.
Regarding `C#C[C@@H](CCCC)OC(=O)N[C@H](C)c1ccccc1`, the TGI in assay [1] is 46.5 µM; in assay [3] it was over 100 µM; in assay [4], over 100 µM; in assay [5], over 100 µM; in assay [6], over 100 µM; in [7], over 100 µM. Besides, the results for the TGI in assay [8] and in assay [9] were 82 µM and over 100 µM, respectively.
For the molecule `CC1(C2CCC3(C)C(C2)C3Sc2ccccc2)OCCO1` (stereo unspecified), the TGI in assay [1] was 34 µM; in [2], 67.3 µM; in assay [3], 46.9 µM; in assay [4], 81.7 µM; in assay [5], over 100 µM; in assay [6] it was 50.1 µM. For the same molecule, the TGI was 39.2 µM in [10], over 100 µM in [7] and 46.5 µM in [9].
For `NC(=O)c1nc(-c2ccc(Cl)c(Cl)c2)nc2ccccc12`, the TGI was over 100 µM in assay [1]; over 95.5 µM in assay [2]; over 100 µM in [3]; over 100 µM in assay [4]; over 100 µM in assay [5]; over 100 µM in assay [6]. Besides, the TGI was over 21.8 µM in assay [7], over 100 µM in [8] and over 100 µM in assay [9].
Turning to `Oc1ccc(O)c(-n2cccn2)c1-n1cccn1`, the TGI in assay [1], in assay [2], in assay [3], in assay [4], in assay [5] and in assay [6] was over 100 µM each time. For the same molecule, the TGI in assay [10], in [7] and in assay [9] was over 100 µM in each case.
Take `CCCC(=O)OC(OC(=O)CCC)c1ccc([N+](=O)[O-])o1`: the TGI in [1] is over 100 µM; in assay [2] it was over 100 µM; in assay [3], 49.9 µM; in assay [5], 53.5 µM; in assay [6], 41.2 µM; in assay [10], 32.1 µM. In addition, the TGI in assay [7] and in assay [9] was over 100 µM throughout.
With `N/C(CC(=O)NOC(=O)c1ccccc1)=N/OC(=O)c1ccccc1`, the TGI is over 100 µM in assay [1]; 54.8 µM in [2]; over 100 µM in assay [3]; 75 µM in [4]; over 100 µM in assay [5]; over 100 µM in assay [6]. The TGI was over 100 µM in assay [7], 92.5 µM in assay [8] and 61.6 µM in [9].
Regarding `Nc1ccn(C2CC3OCC3O2)c(=O)n1` (stereo unspecified), the TGI in assay [1], in [2], in [3], in assay [4], in [5] and in [6] was over 100 µM throughout. Moreover, the TGI in assay [7], in assay [8] and in assay [9] was over 100 µM in each case.
